The values that follow come from US20060148725A1, “Selective 11beta HSD inhibitors and methods of use thereof” (The Miriam Hospital, priority 2001, published 2006).

Data set [1] has as its system rat aortic rings. As to conditions: aortic rings incubated with corticosterone; previously demonstrated; cited from earlier work.
Data set [2] concerns the target T1, 11β-HSD1 Reductase (Rattus norvegicus, UniProt P16232). Kind of data set: Metabolism of 3H-11-dehydrocorticosterone back to corticosterone by aortic rings. In kind it is cell-based. More on the design: from tissue; host or cells: rat (Sprague-Dawley) thoracic aortic rings, endothelium intact. The conditions noted are these: 24 hours. The procedure:
(§1) The effects of 11β-HSD1 and 11β-HSD2 antisense on the inter-conversion of ^3H-corticosterone and ^3H-11-dehydro-corticosterone by aortic rings was also determined. Rings (2-3 mm) obtained in a similar manner as those in the contraction studies, were incubated in 1 ml DMEM/F12 media containing 1% FBS at 37° C. under 95% O2-5% CO2 in 24-well culture plates. Rings were incubated for 24 hours with: • (i) ^3H-corticosterone (10 nmol/L)±11β-HSD2 or 11β-HSD1 antisense (3 μmol/L); control groups received nonsense oligomers. The amount of ^3H-11-dehydro-corticqsterone in the incubation medium after 24 hrs was then measured. The effects of 11β-HSD1 antisense/nonsense were measured in quadruplicate (n=6 aortic rings per well) and the effects of 11β-HSD2 antisense/nonsense in duplicate (n=8 aortic rings per well), • (ii) ^3H-11-dehydro-corticosterone (10 nmol/L)±11β-HSD1 antisense (3 μmol/L); this experiment was performed in duplicate (n=10 aortic rings per well). Control groups were incubated with the appropriate nonsense oligomer. ^3H-corticosterone in the incubation medium after 24 hrs was then measured. In this experiment, aortic rings were also analyzed for ^3H-corticosterone content. Rings from duplicate incubations (total n=20) were blotted dry, pooled and homogenized in 50 % methanol using a Polytron. […]

Data set [3] concerns 11β-HSD1. Put plainly: Conversion of 3H-corticosterone to 11-dehydrocorticosterone by aortic rings, 11β-HSD1 antisense. In kind it is cell-based, rat. As to conditions: 3H-corticosterone 10 nM, antisense 3 μM, 24 hrs. Here is the method:
as §1

Data set [4] has as its system 11β-HSD1. Put plainly: RT-PCR analysis of 11β-HSD1 expression in cultured vascular cells. The class given is cell-based. As to conditions: cultured rat vascular endothelial and smooth muscle cells. The source says: (§2) Since 11β-HSD2 appears to exist only in endothelial cells, this observation supports a role for the action of glucocorticoids in affecting endothelial cell function. […] Further experiments to determine whether antisense oligomers down-regulate mRNA and protein expression of their respective 11β-HSD isoform under conditions in which they enhance contractile responses in aortic rings will be done.

For data set [5], the system named is rat aortic rings. Put plainly: Contractile response of rat aortic rings to phenylephrine. In kind it is cell-based. The conditions noted are these: rings incubated 24 hours with corticosterone 10 nmol/L and antisense 3 μmol/L; graded phenylephrine. Here is the method:
Male Sprague-Dawley (1 50-200 g) rats were anesthetized with pentobarbital (50 mg/kg IP), and a median sternotomy was performed followed by the rapid removal of the thoracic aorta. The adventitia was removed, but the endothelium was left intact. The aorta was cut into 2-3 mm rings and individual rings were placed into a single well of a twenty four well culture plate and incubated at 37° C. under 95% O2-5% CO2. Each well contained 1 mL of DMEM/F12 containing 1% fetal bovine serum, streptomycin (100 μg/ml), penicillin (100 units/ml) and amphotericin (0.25 μg/ml). […]
For contraction measurements, aortic rings were suspended by tungsten wires with 1 g of tension and placed in a vessel bath containing serum free DMEM/F12 media at 37° C. aerated with 95% O2-5% CO2, at pH 7.4. […] The intensity of contraction was assessed by use of a Narishige micromanipulator and model FT03 force transducer (Grass Instrument Co. West Warwick, R.I.). Measurements were recorded on computer using the Labview 4.1 Virtual Instrument System (National Instruments, Austin, Tex.).

Data set [6] concerns the target T2, 11β-HSD2 Dehydrogenase (Ovis aries, UniProt P50168).
T2 construct: using 50 nM corticosterone substrate concentration and sheep kidney microsomes; from tissue; host or cells: sheep kidney microsomes
T2 sequence (P50168 1-427): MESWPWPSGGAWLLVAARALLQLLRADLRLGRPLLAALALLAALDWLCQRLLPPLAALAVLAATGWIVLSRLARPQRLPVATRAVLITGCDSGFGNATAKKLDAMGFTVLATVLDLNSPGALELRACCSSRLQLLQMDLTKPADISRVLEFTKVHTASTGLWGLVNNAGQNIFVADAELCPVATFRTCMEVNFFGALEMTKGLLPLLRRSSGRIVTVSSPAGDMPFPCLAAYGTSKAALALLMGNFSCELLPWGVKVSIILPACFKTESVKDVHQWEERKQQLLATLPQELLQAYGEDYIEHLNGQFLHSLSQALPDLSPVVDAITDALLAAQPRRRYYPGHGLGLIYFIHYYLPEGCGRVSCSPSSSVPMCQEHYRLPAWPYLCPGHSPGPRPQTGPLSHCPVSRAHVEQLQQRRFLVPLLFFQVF
Kind of data set: Inhibition of 11β-HSD2 dehydrogenase activity (Table 1). In kind it is biochemical, sheep. The conditions noted are these: inhibition class in words.

Data set [7] deals with T1, 11β-HSD1 Reductase. Kind of data set: Inhibition of 11β-HSD1 reductase activity (Table 1). As to conditions: inhibition class in words.
In data set [8] the target is 11β-HSD1 Dehydrogenase (Rattus norvegicus, UniProt P16232). Put plainly: Inhibition of 11β-HSD1 dehydrogenase activity (Table 1). In kind it is biochemical. The conditions noted are these: inhibition class in words.
Sequence of 11β-HSD1 Dehydrogenase (P16232 whole entry): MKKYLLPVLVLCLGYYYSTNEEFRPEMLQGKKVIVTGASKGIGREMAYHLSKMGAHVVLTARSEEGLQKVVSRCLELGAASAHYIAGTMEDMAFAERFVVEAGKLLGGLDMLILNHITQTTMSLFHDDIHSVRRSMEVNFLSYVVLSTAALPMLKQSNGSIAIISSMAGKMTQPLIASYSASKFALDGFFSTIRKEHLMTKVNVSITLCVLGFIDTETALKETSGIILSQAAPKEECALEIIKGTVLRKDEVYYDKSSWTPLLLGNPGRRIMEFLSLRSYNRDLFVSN
Data set [9] concerns 11β-HSD2. Kind of data set: RT-PCR analysis of 11β-HSD2 expression in cultured vascular cells. The class given is cell-based. As to conditions: cultured rat vascular endothelial and smooth muscle cells.
Source text: as §2

In data set [10] the test system is 11β-HSD2. Kind of data set: Conversion of 3H-corticosterone to 11-dehydrocorticosterone by aortic rings, 11β-HSD2 antisense. As to conditions: antisense 3 μM, 24 hrs. The class given is cell-based, rat. The procedure:
as §1

T1 sequence (P16232 whole entry): as above

Turning to `C[C@]12C[C@H](O)[C@H]3[C@@H](CCC4=CC(=O)CC[C@@]43C)[C@@H]1CC[C@@H]2C(=O)CO` [corticosterone], the “effect of the steroid on contractile responses to graded phenylephrine compared to controls” value in data set [1] is “amplified contractile responses”.

Consider “11β-HSD1 antisense: Antisense phosphorothioate oligonucleotide blocking 11β-HSD1 gene expression, 5′-CATAACTGCCGTCCAACAGC-3′ (antisense CATAACTGCCGTCCAACAGC; all phosphorothioate, sugars by position and methylation of C not given here)”, for which the “production of 3H-corticosterone from 3H-11-dehydrocorticosterone, incubation media, compared to nonsense oligomers” value in data set [2] (incubation media) is “markedly reduced”. The “production of 3H-corticosterone from 3H-11-dehydrocorticosterone, aortic ring tissue, compared to nonsense oligomers” value in data set [2] (pooled aortic ring tissue) was “markedly lower”. In data set [3], the “conversion of corticosterone to 11-dehydrocorticosterone, lower than with 11β-HSD1 nonsense oligomers” value stood at 21%. Moreover, in data set [4], the “expression of 11β-HSD1 isoform by RT-PCR” value was “down-regulate”. Further, in data set [5], the “contractile response to phenylephrine compared to corticosterone plus nonsense oligomers” value is “significantly increased”.

Consider `C[C@]12CCC(=O)C[C@@H]1CC[C@@H]1[C@@H]2[C@@H](O)C[C@]2(C)[C@@H](C(=O)CO)CC[C@@H]12` [5α-dihydro-corticosterone], for which the “11β-HSD2 Dehydrogenase” value in data set [6] is “Potent Inhibitor”. Also, the “11β-HSD1 Reductase” value in data set [7] is “No inhibition”. Besides, the “11β-HSD1 Dehydrogenase” value in data set [8] is given as “Potent Inhibitor”.

For “11β-HSD2 antisense: Antisense phosphorothioate oligonucleotide blocking 11β-HSD2 gene expression, 5′-AGGCCAGCGCTCCATGACTT-3′ (antisense AGGCCAGCGCTCCATGACTT; all phosphorothioate, sugars by position and methylation of C not given here)”, the “expression of 11β-HSD2 isoform by RT-PCR” value in [9] is given as “down-regulate”. Further, the “reduction in the conversion of corticosterone to 11-dehydrocorticosterone compared to 11β-HSD2 nonsense” value in data set [10] is given as 24%. For the same compound, in [5], the “contractile response to phenylephrine compared to corticosterone plus nonsense oligomers” value is listed as “statistically significant increase”.

Take `CC(=O)[C@H]1CC[C@@H]2[C@@H]3CC[C@@H]4C[C@@H](O)CC[C@]4(C)[C@@H]3[C@@H](O)C[C@]12C` [3α,5β-reduced-11β-OH-progesterone]: in [6], the “11β-HSD2 Dehydrogenase” value is “No Inhibition”. The “11β-HSD1 Reductase” value in data set [7] is on record as “No Inhibition”. Further, the “11β-HSD1 Dehydrogenase” value in data set [8] was “Moderate Inhibitor”.

Consider `C[C@]12C[C@H](O)[C@@H]3[C@@H](CCC4=CC(=O)CC[C@@]43C)[C@H]1CC[C@@H]2O` [11β-OH-testosterone], for which the “11β-HSD2 Dehydrogenase” value in data set [6] is “Inhibitor (Non-Selective)”. Further, the “11β-HSD1 Reductase” value in [7] is reported as “No Inhibition”. For the same compound, in data set [8], the “11β-HSD1 Dehydrogenase” value was “Inhibitor (Non-Selective)”.

`C[C@]12CC[C@H](O)C[C@H]1CC[C@@H]1[C@H]2[C@@H](O)C[C@]2(C)C(=O)CC[C@H]12` [3α,5α-reduced-11β-OH-androstenedione]: in data set [6], the “11β-HSD2 Dehydrogenase” value was “Potent Inhibitor (Non-Selective)”. Further, the “11β-HSD1 Reductase” value in [7] is “No Inhibition”. Besides, the “11β-HSD1 Dehydrogenase” value in data set [8] is reported as “Moderate Inhibitor”.

Take `C[C@]12CC[C@H](O)C[C@H]1CC[C@@H]1[C@H]2[C@@H](O)C[C@@]2(C)[C@@H]1CC[C@@H]2O` [3α,5β-reduced-11β-OH-testosterone]: the “11β-HSD2 Dehydrogenase” value in data set [6] is recorded as “No Inhibition”. The “11β-HSD1 Reductase” value in [7] was “No Inhibition”. For the same compound, in [8], the “11β-HSD1 Dehydrogenase” value was “Moderate Inhibitor”.
